Laboratory results taken from PMC12716008 (Chemistry & Biodiversity, 2025).
In brackets after ≈: the same amount, converted by molar mass. Where two headings read alike, the source gives them in different places. Starred links: 1 amine or outer side, 2 acyl side, 3 side chain; linkers in the order of their positions; H or OH if unused. Positions of bridges follow the written chain, without caps; N, C: chain ends. Non-standard residues stand in square brackets, D forms with d. Residues, ends and D or L forms follow the SMILES beside them. Chains are numbered I, II in the order given. Actinocin(9to1) = Cc1c2oc3c(C)ccc(C(=O)[*:1])c3nc-2c(C(=O)[*:2])c(N)c1=O; NMeV = CN[C@H](C(=O)O)C(C)C; Sar = CNCC(=O)O

Legend:
[1] = test system: Mycobacterium tuberculosis H37Rv (ATCC 27264); experiment: Antimycobacterial activity, microtitre Alamar Blue/Presto Blue assay (MIC); type: cell-based; conditions: 120 h, read-out: M. tb MIC
[2] = test system: methicillin‐sensitive S. aureus (MSSA) UAMS‐1; experiment: Antistaphylococcal activity, broth microdilution (MIC); type: cell-based; conditions: Staphylococcus aureus, read-out: MSSA MIC
[3] = test system: Mycobacterium smegmatis (MC^2 155); experiment: Antimycobacterial activity, microtitre Alamar Blue/Presto Blue assay (MIC); type: cell-based; conditions: Mycolicibacterium smegmatis, read-out: M. smeg MIC
[4] = test system: methicillin‐resistant S. aureus (MRSA) AH1263 or LAC; experiment: Antistaphylococcal activity, broth microdilution (MIC); type: cell-based, Staphylococcus aureus; conditions: 18 h, read-out: MRSA MIC
[5] = test system: M. smegmatis biofilm formation; experiment: Mycobacterial biofilm inhibition, microtitre antibiofilm assay (MBIC); type: cell-based, Mycobacterium smegmatis; conditions: 2–4 days, 37°C, read-out: M. smeg MBIC
[6] = test system: African green monkey kidney (Vero) cell line; experiment: Cytotoxicity, Presto Blue cell viability; type: cell-based; conditions: 72 h, read-out: Vero IC50 ± SD
Protocol: (§1) The human monocyte (U937) and African green monkey kidney (Vero) cell lines were used in this study to determine the cytotoxic potential of the quinoline derivatives. The cell lines were purchased from Separation Scientific SA (Pty) Ltd. (Johannesburg, South Africa) and maintained in Roswell Park Memorial Institute (RPMI) 1640 and Eagle's Minimal Essential Medium (EMEM), supplemented with 10% heat‐inactivated foetal bovine serum (FBS), 1% antibiotics (100 U/mL penicillin and 100 µg/mL streptomycin) and 1% antifungal agent (250 µg/mL amphotericin B) as previously described. The cells were cultured at 37°C, 5% CO2 in a humidified incubator to 80% confluency. Detachment was achieved by rinsing the cells with phosphate buffer saline followed by the addition of trypsin–EDTA (0.25% trypsin containing 0.01% EDTA). After 5 min, the reaction was inhibited through the addition of supplemented media.
(§2) Cell viability was assessed through the method described by Lall et al., using Presto Blue as the viability reagent. The cells were seeded in a flat‐bottom 96‐well plate (100 µL) at a concentration of 1.0 × 10^6 cells/mL and allowed to adhere for 24 h. The samples were prepared in DMSO at a stock concentration of 20 mM, serially diluted in complete media and added to the plate at a final concentration range of 0.78–100 µM. Controls included a vehicle control (2% DMSO), an untreated cell control, a 0% control (no cells) and actinomycin D, as the positive control, at a final test concentration range of 3.9 × 10^−4 to 0.05 µg/mL. Cells were incubated for 72 h, followed by the addition of 20 µL of Presto Blue reagent to all the wells and an additional 2 h incubation. Cell viability was measured using a VICTOR Nivo Multimode Microplate Reader (PerkinElmer) at an excitation/emission wavelength of 540/590 nm.
(§3) All results are presented as the mean ± standard deviation (where applicable) of experiments done in triplicate and in two or three independent experiments (as stated in each methods section). Descriptive analysis was used to directly compare and rank the compounds and derivatives based on their activity in the biological assays. Additionally, by comparing the antibiofilm activity to the antibacterial activity and the antibacterial activity to the cytotoxicity, selectivity indices were used to assess the preferential activity of the compounds.

[7] = test system: human monocyte (U937) cell line; experiment: Cytotoxicity, Presto Blue cell viability; type: cell-based; conditions: U-937, 72 h
Protocol: as §1, §2, §3

[8] = test system: MRSA AH1263 or LAC biofilm formation; experiment: Staphylococcal biofilm inhibition, crystal violet microtitre test (MBIC); type: cell-based; conditions: Staphylococcus aureus, 22 h, read-out: MRSA MBIC
[9] = test system: MSSA UAMS‐1 biofilm formation; experiment: as above; type: cell-based; conditions: Staphylococcus aureus, 22 h, read-out: MSSA MBIC
hepatoma (Hep3B) = conditions: cited from earlier work
[10] = M. tuberculosis H37Rv, 5 days, 37°C
[11] = MC^2155, M. smegmatis, 24 h, 37°C
[12] = Staphylococcus aureus, MRSA, S. aureus AH1263/LAC
[13] = Chlorocebus sabaeus, Vero, Vero cells
[14] = U937 cells, 72 h, read-out: U937 IC50 ± SD

| Structure (SMILES) | MIC [1, 10] [µM] | MIC ([2]; S. aureus UAMS‐1, 18 h) [µM] | MIC [3, 11] [µM] | MIC [4, 12] [µM] | minimal effective concentration ([5]; Mycolicibacterium smegmatis) [µM] | IC50 [6, 13] [µM] | IC50 [7, 14] [µM] | minimal effective concentration ([8]; S. aureus AH1263/LAC biofilm) [µM] | other results |
| --- | --- | --- | --- | --- | --- | --- | --- | --- | --- |
| CC(C)CCOC(=O)c1ccc2cccc(OCCC(C)C)c2n1 [QD‐11, isopentyl 8‐(isopentyloxy)quinoline‐2‐carboxylate] | 100 (≈ 32.9 µg/mL) | 389 (≈ 128 µg/mL) | > 100 | 389 (≈ 128 µg/mL) | > 100 | 70.4 ± 3.99 | > 100 |  |  |
| Cc1ccc2c(Cl)cc(Cl)c(OCCC(C)C)c2n1 [QD‐5] | > 100 |  | > 100 |  | > 100 | > 100 | > 100 |  |  |
| Cc1ccc2cccc(OCCC(C)C)c2n1 [QD‐8] | 100 (≈ 22.9 µg/mL) | 559 (≈ 128 µg/mL) | > 100 |  | 100 | > 100 | > 100 |  |  |
| NNC(=O)c1ccncc1 [Isoniazid, reference compound] | 0.3 (≈ 0.0411 µg/mL) |  |  |  |  |  |  |  |  |
| CCCCCOc1cccc2ccc(C)nc12 [QD‐7] | 100 (≈ 22.9 µg/mL) | 1120 (≈ 256 µg/mL) | > 100 | 1120 (≈ 256 µg/mL) | > 100 | > 100 | > 100 |  |  |
| CC(C)=CCOc1c(Cl)cc(Cl)c2ccc(C)nc12 [QD‐6] | 100 (≈ 29.6 µg/mL) |  | > 100 |  | > 100 | > 100 | > 100 | 256 |  |
| Cc1onc(-c2ccccc2)c1C(=O)N[C@@H]1C(=O)N2[C@@H]1SC(C)(C)[C@@H]2C(=O)O [Oxacillin, reference compound] |  | 1 (≈ 0.401 µg/mL) |  | 64 (≈ 25.7 µg/mL) |  |  |  |  |  |
| CN[C@H](CC(C)C)C(=O)N[C@H]1C(=O)N[C@@H](CC(N)=O)C(=O)N[C@H]2C(=O)N[C@H]3C(=O)N[C@H](C(=O)N[C@H](C(=O)O)c4cc(O)cc(O)c4-c4cc3ccc4O)[C@H](O)c3ccc(c(Cl)c3)Oc3cc2cc(c3O[C@@H]2O[C@H](CO)[C@@H](O)[C@H](O)[C@H]2O[C@H]2C[C@](C)(N)[C@H](O)[C@H](C)O2)Oc2ccc(cc2Cl)[C@H]1O [Vancomycin, reference compound] |  |  |  |  |  |  |  |  | MIC ([2]; 18 h): 1 µM (≈ 1.45 µg/mL); MIC ([4]; Staphylococcus aureus, MRSA): 1 µM (≈ 1.45 µg/mL) |
| Cc1ccc2c(Cl)cc(Cl)c(O)c2n1 [HQ‐2, 5,7‐dichloro‐8‐hydroxy‐2‐methylquinoline, reference compound] | 0.1 (≈ 0.0228 µg/mL) | 2.2 (≈ 0.502 µg/mL) | 1.56 (≈ 0.356 µg/mL) | 1.1 (≈ 0.251 µg/mL) | 3.13 | < 100 |  | 35.2 | IC50 ([6]; Vero cells): 82.8 ± 7.09 µM; minimal effective concentration ([9]; S. aureus UAMS‐1 biofilm): 17.6 µM |
| Oc1cccc2cccnc12 [HQ‐1, 8‐hydroxyquinoline, reference compound] |  |  |  |  |  |  |  |  | MIC [1]: 1 µM (≈ 0.145 µg/mL); MIC ([2]; 18 h): 13.8 µM (≈ 2 µg/mL); MIC ([3]; MC^2155, 24 h): 3.13 µM (≈ 0.454 µg/mL); MIC ([4]; S. aureus AH1263/LAC): 6.90 µM (≈ 1 µg/mL); MIC ([4]; Staphylococcus aureus, MRSA): 6.9 µM (≈ 1 µg/mL); minimal effective concentration [8]: 6.9 µM; minimal effective concentration [9]: 13.8 µM |
| O=Cc1ccc2cccc(O)c2n1 [HQ‐4, 8‐hydroxyquinoline‐2‐carbaldehyde, reference compound] |  |  |  |  |  |  |  |  | MIC [1]: 1 µM (≈ 0.173 µg/mL); MIC ([2]; 18 h): 370 µM (≈ 64.1 µg/mL); MIC ([3]; MC^2155, 24 h): > 100 µM; MIC ([4]; Staphylococcus aureus, MRSA): 370 µM (≈ 64.1 µg/mL); minimal effective concentration [8]: 740 µM; minimal effective concentration [5]: >100 µM; MTS50 (hepatoma (Hep3B)): 6.25 ± 0.034 µg/mL; IC50 ([6]; Chlorocebus sabaeus, Vero): > 100 µM; minimal effective concentration [9]: 740 µM |
| CC(C)CCOc1cccc2cccnc12 [QD‐2] | > 100 |  | > 100 | 1190 (≈ 256 µg/mL) | > 100 | > 100 | > 100 | 1190 | minimal effective concentration ([9]; S. aureus UAMS‐1 biofilm): 1190 µM |
| Cc1ccc2cccc(O)c2n1 [HQ‐3, 2‐methyl‐8‐hydroxyquinoline, reference compound] |  |  |  |  |  |  |  |  | MIC [1]: 1 µM (≈ 0.159 µg/mL); MIC ([2]; 18 h): 201 µM (≈ 32 µg/mL); MIC ([3]; MC^2155, 24 h): 6.25 µM (≈ 0.995 µg/mL); MIC ([4]; Staphylococcus aureus, MRSA): 101 µM (≈ 16 µg/mL); minimal effective concentration [8]: 201 µM; IC50 ([6]; Chlorocebus sabaeus, Vero): > 100 µM; IC50 ([7]; read-out: U937 IC50 ± SD, U937 cells, 72 h): > 100 µM; minimal effective concentration [9]: 101 µM |
| CCCCCOc1c(Cl)cc(Cl)c2ccc(C)nc12 [QD‐4] | > 100 |  | > 100 |  | > 100 | > 100 | > 100 |  |  |
| O=C(O)c1cn(C2CC2)c2cc(N3CCNCC3)c(F)cc2c1=O [Ciprofloxacin, reference compound] |  |  | 0.6 (≈ 0.199 µg/mL) |  | 0.325 |  |  | 1 | minimal effective concentration ([9]; S. aureus UAMS‐1 biofilm): 2 µM |
| CCCCCOc1cccc2cccnc12 [QD‐1] | 100 (≈ 21.5 µg/mL) | 595 (≈ 128 µg/mL) | > 100 | 595 (≈ 128 µg/mL) | > 100 | > 100 | > 100 | 595 | minimal effective concentration ([9]; S. aureus UAMS‐1 biofilm): 595 µM |
| CCCCCOC(=O)c1ccc2cccc(OCCCCC)c2n1 [QD‐10, pentyl 8‐(pentyloxy)quinoline‐2‐carboxylate] | 100 (≈ 32.9 µg/mL) | 389 (≈ 128 µg/mL) | > 100 | 389 (≈ 128 µg/mL) | > 100 | 84.8 ± 3.42 | 69.48 ± 0.16 |  |  |
| CC(C)=CCOc1cccc2cccnc12 [QD‐3] | 100 (≈ 21.3 µg/mL) | 300 (≈ 64.1 µg/mL) | > 100 | 300 (≈ 64.1 µg/mL) | 100 | > 100 | 83.83 ± 0.8 | 601 | minimal effective concentration ([9]; S. aureus UAMS‐1 biofilm): 601 µM |
| CC(C)=CCOc1cccc2ccc(C)nc12 [QD‐9] | 100 (≈ 22.7 µg/mL) |  | > 100 |  | > 100 | > 100 | > 100 |  |  |
| Cc1c2oc3c(C)ccc(C(=O)N[C@@H]4C(=O)N[C@H](C(C)C)C(=O)N5CCC[C@H]5C(=O)N(C)CC(=O)N(C)[C@@H](C(C)C)C(=O)O[C@@H]4C)c3nc-2c(C(=O)N[C@@H]2C(=O)N[C@H](C(C)C)C(=O)N3CCC[C@H]3C(=O)N(C)CC(=O)N(C)[C@@H](C(C)C)C(=O)O[C@@H]2C)c(N)c1=O [Actinomycin D, reference compound] (I: T[dV]P[Sar][NMeV] / II: T[dV]P[Sar][NMeV]; ester I:1-I:C, II:1-II:C; linker I:N-II:N via Actinocin(9to1)) |  |  |  |  |  |  |  |  | IC50 ([6]; Chlorocebus sabaeus, Vero): 0.02 µM; IC50 ([7]; read-out: U937 IC50 ± SD): 0.002 µM |
| CC(C)=CCOc1cccc2ccc(C=O)nc12 [QD‐12] | 100 (≈ 24.1 µg/mL) | 266 (≈ 64.1 µg/mL) | 100 (≈ 24.1 µg/mL) | 133 (≈ 32 µg/mL) | 12.5 | > 100 | > 100 | 266 | minimal effective concentration ([9]; S. aureus UAMS‐1 biofilm): 531 µM |
